The source made the active and inactive calls. No rule for the calls is given here.

This assay has as its system parental cell line counter screen, S1P1 agonist assay readout. Description: signal in parental cells, counter-screen for S1P1 agonist project (AID 467).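 Also: agonist potency measured against forskolin stimulation plus an EC20 level of SEW2871.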

Broadly, the EC50 is the concentration at which the effect is half-maximal. In the case of `COc1ccccc1-n1nnnc1SCc1cc2c(cc1Br)OCO2`, the EC50 was > 95.1 µM (inactive). The same measure for `COc1ccc2c(c1)CCc1c(C(=O)NC3CCCCC3)noc1-2`: > 95.1 µM (inactive); for `COc1cc(CSc2nnnn2-c2ccc(C)cc2)cc(OC)c1OC`: > 30 µM (inactive); for `O=C(Nc1ccccc1C(F)(F)F)c1cc(-c2ccc(O)cc2)on1`: > 95.1 µM (inactive).

As for `Cc1ccc(-c2nc(COC(=O)c3c(C)noc3C)cs2)cc1`, the EC50 is > 95.1 µM (inactive). To `COCCN(C(=O)c1ccccc1)c1nnc(-c2cccnc2)s1` belongs > 95.1 µM (inactive); to `CC1=C(C(=O)OCc2ccc3c(c2)OCO3)C(c2ccccc2)NC(=O)N1` (stereo not given), > 10 µM (inactive). Consider `O=C(Nc1cccc(C(F)(F)F)c1)N1CCC(c2nc(-c3ccc(F)cc3)no2)CC1`, for which the EC50 was 14.4 µM (inactive).

Regarding `Cc1ccsc1C(=O)OCC(=O)c1cc(C)n(CC2CCCO2)c1C` (stereo not given), the EC50 was > 95.1 µM (inactive). `CCn1nc(-c2cccs2)nc2c(=O)n(C)c(=O)nc1-2`: the EC50 was 12.3 µM (inactive). With `CCCn1c(CN2CCN(c3cccc(Cl)c3)CC2)nc2c1c(=O)n(C)c(=O)n2C`, the EC50 was > 95.1 µM (inactive). `C/C(N)=C(/C#N)C(=O)CSc1nnc(SCc2ccc(Cl)cc2)s1`: the EC50 was > 95.1 µM (inactive). The same measure for `COCCn1c(C)cc(C(=O)CSc2nc3ccccc3c(=O)[nH]2)c1C`: > 95.1 µM (inactive); for `CCOc1cc(-c2noc(-c3cccnc3)n2)ccc1OC`: > 95.1 µM (inactive). To `CCN(C(=O)c1ccc(C(C)(C)C)cc1)c1nnc(Cn2nnc3ccccc32)s1` belongs 8.78 µM; to `Cc1ccc(C(=O)Nc2nc(COc3ccccc3)cs2)s1`, 28.9 µM (inactive). To `Clc1ccc(-n2nnnc2Sc2ncnc3sccc23)cc1` belongs 2.87 µM. As to `CCc1ccc(NC(=O)c2cc(-c3ccco3)on2)cc1`, the EC50 is > 95.1 µM (inactive). Take `CC1Cc2cc(-c3csc(NC(=O)Cc4cccs4)n3)ccc2N1S(C)(=O)=O` (stereo not given): the EC50 was 23.8 µM (inactive).

Regarding `Cn1c(SCC(=O)Nc2ccc(N3CCOCC3)c(Cl)c2)nnc1-c1ccccc1`, the EC50 is > 95.1 µM (inactive). The same measure for `Nc1nonc1C(=O)NCCNCc1cc(Br)ccc1OCc1ccc(F)cc1`: 30.5 µM (inactive). The same measure for `CCOC(=O)CN1C(=O)C(C)(C)Oc2ccc(C(=O)Nc3ccccc3OC)cc21`: > 95.1 µM (inactive); for `O=S1(=O)C=C(Sc2nc3cc(Cl)ccc3o2)c2ccccc21`: 6.35 µM; for `CCc1cc(-c2[nH]ncc2-c2ccc3c(c2)OCO3)c(O)cc1O`: 9.08 µM. The same measure for `Cc1n[nH]c(C)c1N1C(=O)c2cccc3c(N4CCCCCC4)ccc(c23)C1=O`: 37 µM (inactive). On to `C=CCn1c(C)cc(C(=O)CSc2nc3ccccc3o2)c1C`, for which the EC50 was > 30 µM (inactive).

For the compound `Cc1ccc2c(c1)[nH]c1c(N3CCN(Cc4ccccc4)CC3)ncnc12`, the EC50 is 7.72 µM. The same measure for `COc1ccc(N2C(=O)CC(Sc3ncn[nH]3)C2=O)c(OC)c1` (stereo not given): 4.91 µM; for `Cc1cc(C)n(-c2nc3ccccc3c(=O)n2OCCOc2ccccc2)n1`: > 95.1 µM (inactive); for `Cc1ccccc1OCCCCc1c(C)n[nH]c1C`: > 30 µM (inactive). The same measure for `O=C(Nc1nc(-c2ccc3c(c2)OCO3)cs1)c1ccncc1`: 28.9 µM (inactive); for `Cc1nnc(SC(=O)N2c3ccccc3Sc3ccccc32)s1`: 3.42 µM. To `Cc1cccc(OCCCCc2c(C)n[nH]c2C)c1C` belongs 29.3 µM (inactive). For `COc1cc(-c2noc(C3CCCN(S(=O)(=O)c4cccc(Cl)c4)C3)n2)cc(OC)c1OC` (stereo not given), the EC50 was > 95.1 µM (inactive). For `COC(=O)c1ccc(CSc2nc3ccccc3c(=O)n2Cc2ccco2)o1`, the EC50 was > 95.1 µM (inactive). Consider `Nc1ccc(N2CCOCC2)c(Cl)c1`, for which the EC50 was > 95.1 µM (inactive). To `Cn1c(C(=O)N2CCc3ccccc3C2)cc2oc3ccccc3c21` belongs 66.4 µM (inactive).

For the compound `Cc1noc(/C=C/N(C)C)c1S(=O)(=O)N1CCN(c2ccccc2)CC1`, the EC50 was > 95.1 µM (inactive).

With `CN(C)CC(C(=O)c1ccccc1)c1ccccc1` (stereo not given), the EC50 was 3.58 µM.

`COc1cccc(NC(=O)Nc2nnc(N3CCCCC3C)s2)c1` (stereo not given): the EC50 was 40 µM (inactive). `O=S(=O)(CCSc1ccccn1)c1nc2ccccc2s1`: the EC50 was 4.71 µM. The same measure for `Cc1ccc2[nH]c3c(NCc4ccco4)ncnc3c2c1`: 30.9 µM (inactive). As to `COc1ccc2ncn(-c3ccccc3)c2c1`, the EC50 was > 95.1 µM (inactive). For `CCCCOc1ccc(S(=O)(=O)Nc2cc(OC)ccc2OC)cc1`, the EC50 was > 30 µM (inactive). To `Cc1cc(C(=O)CN2C(=O)c3ccccc3C2=O)c(C)n1Cc1cccs1` belongs > 95.1 µM (inactive); to `CCN=c1sc(C(=O)NCCc2ccccc2)cc(=O)n1CC`, 53.2 µM (inactive).

`C=CCOC(=O)c1[nH]c2c(c1C)C(=O)CC(c1cc(OC)c(OC)c(OC)c1)C2` (stereo not given): the EC50 was > 95.1 µM (inactive). In the case of `COCCn1c(C)cc(C(=O)CSc2nnc(-c3cccnc3)n2-c2ccccc2F)c1C`, the EC50 was > 95.1 µM (inactive). The same measure for `CCC(C)c1ccc2oc(-c3ccc(NC(=O)Cn4cnc5c(=O)n(C)c(=O)n(C)c54)cc3)nc2c1` (stereo not given): > 95.1 µM (inactive). To `Cc1cc(/C=N/n2cnnc2)c(C)n1-c1ccc(OCc2ccc(F)cc2)cc1` belongs 6.71 µM; to `CCOc1ccc(S(=O)(=O)n2cnc3cc(C)c(C)cc32)cc1`, > 30 µM (inactive); to `COc1cc(C(=O)N2CCN(S(=O)(=O)c3ccc(C)cc3)CC2)ccc1OCc1c(C)noc1C`, > 95.1 µM (inactive). The same measure for `O=C(CSc1nc2ccccc2o1)Nc1ccc(N2CCOCC2)c(Cl)c1`: 19.6 µM (inactive); for `CCCc1ccc(Oc2cn[nH]c2-c2ccc(O)c(C)c2O)cc1`: > 10 µM (inactive); for `Cc1ccc2[nH]c3c(N4CCN(Cc5ccc6c(c5)OCO6)CC4)ncnc3c2c1`: > 95.1 µM (inactive). Turning to `O=S1(=O)C=C(Sc2nnc(-c3ccccc3)o2)c2ccccc21`, the concentration for a half-maximal effect (EC50) is 3.16 µM. As for `Cc1nn(Cc2ccc(Cl)c(Cl)c2)c(C)c1NC(=O)c1cc(-c2ccco2)on1`, the EC50 was 13.2 µM (inactive). To `N#CCCS(=O)(=O)c1nnnn1-c1ccccc1` belongs 1.34 µM. The same measure for `COc1ccc(-c2nc(-c3ccccc3OC)no2)cc1OC`: > 95.1 µM (inactive). To `Fc1ccc(COc2ccc(/C=N/n3cnnc3)cc2)cc1` belongs > 95.1 µM (inactive); to `CS(=O)(=O)n1nc(OC(=O)c2cccc3ccccc23)cc1N`, 12 µM (inactive); to `CCCCc1ccc(C2C(C#N)=C(N)SC(N)=C2C#N)s1`, 16.8 µM (inactive). For the compound `Clc1ccc(CSc2nnc(-c3ccncc3)o2)cc1`, the EC50 is 86.9 µM (inactive).

As to `Cc1oc(-c2ccccc2)nc1Cn1cccc1C1=NC(c2ccccc2)CO1` (stereo not given), the EC50 is > 95.1 µM (inactive). Turning to `CC(C)Cn1c(=O)c(C(=O)Nc2ccccc2S(N)(=O)=O)c(O)c2ccccc21`, the EC50 is 16.3 µM (inactive). The same measure for `O=C(CCC(=O)N(Cc1ccco1)C(C(=O)NC1CCCC1)c1ccncc1)Nc1cccnc1` (stereo not given): > 95.1 µM (inactive). To `COc1ccc(-c2noc(-c3cc(C)cc(C)c3)n2)cc1OC` belongs > 95.1 µM (inactive).

Turning to `CCOC(=O)c1c(C)[nH]c(C(=O)C(C)OC(=O)c2cccc(OCc3c(C)noc3C)c2)c1C` (stereo not given), the EC50 was 20.1 µM (inactive).

With `CCCCNc1cc(C)nc(NCc2ccccc2)n1`, the EC50 is 12.8 µM (inactive). To `O=C(Nc1cccc(C(F)(F)F)c1)C1CCCN1S(=O)(=O)c1cccc2cccnc12` (stereo not given) belongs > 30 µM (inactive). To `N/C(=N\c1nc2c(c(=O)[nH]1)CCCC2)Nc1ccccc1` belongs > 95.1 µM (inactive). In the case of `Clc1ccc(OCc2nnc(-c3ccccc3Br)o2)c(Cl)c1`, the EC50 was > 95.1 µM (inactive).

Turning to `O=C(Nc1nc2c(s1)CCCC2)c1cc2n(n1)C(C(F)(F)F)CC(C1CC1)N2` (stereo not given), the EC50 was > 95.1 µM (inactive). As for `COc1ccc(-c2cn3c(C)c(C(=O)Nc4ccncc4)sc3n2)cc1`, the EC50 was > 95.1 µM (inactive).

`O=S1(=O)Nc2c(ccc3cccnc23)-c2ccccc21`: the EC50 was > 95.1 µM (inactive). To `CCSc1nc(N2CCOCC2)c2c(c1C#N)CCCC2` belongs > 95.1 µM (inactive). To `COc1cccc2sc(Nc3nc(-c4ccccn4)cs3)nc12` belongs 8.08 µM; to `Cc1ccc2c(c1)N(CC(=O)Nc1ccc3c(c1)OCCO3)C(=O)CO2`, > 95.1 µM (inactive); to `CCn1nc(-c2ccccc2)nc2c(=O)n(C)c(=O)nc1-2`, 2.09 µM. To `COc1ccc(-c2nc(-c3ccncc3)no2)cc1OC` belongs > 95.1 µM (inactive). As for `CC(C)c1ccc2oc(-c3cc(N)ccc3O)nc2c1`, the EC50 was > 30 µM (inactive). For `Cc1oc2cc(O)cc(O)c2c(=O)c1-c1ccc2c(c1)OCCCO2`, the EC50 was > 30 µM (inactive). For `CCOC(=O)Cc1csc(NC(=O)c2ccc(Br)s2)n1`, the EC50 was 47.9 µM (inactive).

Regarding `Cn1cccc1C(=O)OCc1cc(Cl)cc2c1OCOC2`, the EC50 is > 30 µM (inactive). Take `Cc1cccc(N2CCN(C(=O)C3CCCN(S(=O)(=O)c4cccc5cccnc45)C3)CC2)c1C` (stereo not given): the EC50 was 28.7 µM (inactive). To `O=C(Nc1nc(-c2nc3ccccc3s2)cs1)c1ccc(S(=O)(=O)N2CCOCC2)cc1` belongs 27.5 µM (inactive); to `CCCCOC(=O)c1[nH]c2c(c1C)C(=O)CC(c1cc(OC)c(OC)c(OC)c1)C2` (stereo not given), 12.1 µM (inactive). To `CCCc1ccc(Oc2cn[nH]c2-c2ccc(O)cc2O)cc1` belongs > 10 µM (inactive). The same measure for `COc1ccc(-n2c(C)cc(C(=O)COC(=O)Cn3cnc4ccccc43)c2C)cc1`: > 30 µM (inactive); for `CCC(=NCc1ccc2c(c1)OCO2)c1c(O)n(C2CCCCC2)c(=O)[nH]c1=O`: 26.6 µM (inactive).

(Values after PubChem BioAssay AID467 (The Scripps Research Institute Molecular Screening Center, 2006).)
